Measured values from PubChem BioAssay AID248 (DTP/NCI, 2004).
Several values for one entry are separate records, joined by “and”; a condition that tells them apart may be missing. Equal entries are not always repeated. Toxic doses and inconclusive results are not listed. Rule as the data show it: active = T/C of 150% or more; inactive = T/C below 125%. Square brackets hold non-standard residues; d marks the D form. Peptide text beside a SMILES is read from it. * marks the point of attachment. ξ: configuration not given here. Cbz = O=C(OCc1ccccc1)*; ξI = CCC(C)C(N)C(=O)O; OBn = c1ccc(CO*)cc1

System: L1210 leukemia ip in BDF1 mice, survival T/C
Assay: NCI In Vivo Anticancer Drug Screen. Data for tumor model L1210 Leukemia (intraperitoneal) in B6D2F1 (BDF1) mice
Conditions: endpoint: mean survival time, higher = longer survival
How it was run: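 Survival endpoint. Drug-treated group vs vehicle group, expressed as T divided by C. Tumor passaged by transplantation.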

[1] = dose: 100.0 mg/kg/injection, schedule: Q01DX001 (ip), vehicle: Klucel (hydroxypropylcellulose) (HPC)
[2] = dose: 100.0 mg/kg/injection, schedule: Q01DX009 (ip), vehicle: Klucel (hydroxypropylcellulose) (HPC)
[3] = dose: 200.0 mg/kg/injection, schedule: Q01DX001 (ip), vehicle: Klucel (hydroxypropylcellulose) (HPC)
[4] = dose: 200.0 mg/kg/injection, schedule: Q01DX009 (ip), vehicle: Klucel (hydroxypropylcellulose) (HPC)
[5] = dose: 400.0 mg/kg/injection, schedule: Q01DX009 (ip), vehicle: Klucel (hydroxypropylcellulose) (HPC)
[6] = dose: 100.0 mg/kg/injection, schedule: Q04DX002 (ip), vehicle: saline
[7] = dose: 200.0 mg/kg/injection, schedule: Q04DX002 (ip), vehicle: saline
[8] = dose: 400.0 mg/kg/injection, schedule: Q04DX002 (ip), vehicle: saline
[9] = dose: 100.0 mg/kg/injection, schedule: Q04DX003 (ip), vehicle: saline with Tween-80
[10] = dose: 200.0 mg/kg/injection, schedule: Q04DX003 (ip), vehicle: saline with Tween-80
[11] = dose: 400.0 mg/kg/injection, schedule: Q04DX003 (ip), vehicle: saline with Tween-80
[12] = dose: 100.0 mg/kg/injection, schedule: Q01DX009 (ip), vehicle: saline
[13] = dose: 100.0 mg/kg/injection, schedule: Q04DX003 (ip), vehicle: saline
[14] = dose: 200.0 mg/kg/injection, schedule: Q01DX009 (ip), vehicle: saline
[15] = dose: 200.0 mg/kg/injection, schedule: Q04DX003 (ip), vehicle: saline
[16] = dose: 400.0 mg/kg/injection, schedule: Q04DX003 (ip), vehicle: saline
[17] = dose: 50.0 mg/kg/injection, schedule: Q01DX009 (ip), vehicle: saline with Tween-80
[18] = dose: 100.0 mg/kg/injection, schedule: Q01DX001 (ip), vehicle: saline with Tween-80
[19] = dose: 100.0 mg/kg/injection, schedule: Q01DX009 (ip), vehicle: saline with Tween-80
[20] = dose: 200.0 mg/kg/injection, schedule: Q01DX001 (ip), vehicle: saline with Tween-80
[21] = dose: 200.0 mg/kg/injection, schedule: Q01DX009 (ip), vehicle: saline with Tween-80
[22] = dose: 75.0 mg/kg/injection, schedule: Q01DX001 (ip), vehicle: carboxymethylcellulose (CMC)
[23] = dose: 100.0 mg/kg/injection, schedule: Q01DX001 (ip), vehicle: carboxymethylcellulose (CMC)
[24] = dose: 100.0 mg/kg/injection, schedule: Q04DX003 (ip), vehicle: Klucel (hydroxypropylcellulose) (HPC)
[25] = dose: 200.0 mg/kg/injection, schedule: Q01DX001 (ip), vehicle: carboxymethylcellulose (CMC)
[26] = dose: 200.0 mg/kg/injection, schedule: Q04DX003 (ip), vehicle: Klucel (hydroxypropylcellulose) (HPC)
[27] = dose: 400.0 mg/kg/injection, schedule: Q01DX001 (ip), vehicle: carboxymethylcellulose (CMC)
[28] = dose: 400.0 mg/kg/injection, schedule: Q04DX003 (ip), vehicle: Klucel (hydroxypropylcellulose) (HPC)
[29] = dose: 400.0 mg/kg/injection, schedule: Q01DX009 (ip), vehicle: saline with Tween-80
[30] = dose: 100.0 mg/kg/injection, schedule: Q04DX002 (ip), vehicle: Klucel (hydroxypropylcellulose) (HPC)
[31] = dose: 200.0 mg/kg/injection, schedule: Q04DX002 (ip), vehicle: Klucel (hydroxypropylcellulose) (HPC)
[32] = dose: 400.0 mg/kg/injection, schedule: Q04DX002 (ip), vehicle: Klucel (hydroxypropylcellulose) (HPC)

Measured: T/C

C1CCC2CC(NC3=NCCO3)CCC2C1 (stereo not drawn)
inactive: dose: 0.19 mg/kg/injection, schedule: Q01DX009 (ip), vehicle: Klucel (hydroxypropylcellulose) (HPC) 96 % of control | dose: 0.39 mg/kg/injection, schedule: Q01DX009 (ip), vehicle: Klucel (hydroxypropylcellulose) (HPC) 98 % of control | dose: 0.78 mg/kg/injection, schedule: Q01DX009 (ip), vehicle: Klucel (hydroxypropylcellulose) (HPC) 98 % of control and 113 % of control

CCSC(=O)N1C=Cc2ccccc2C1C#N (stereo not drawn)
inactive: [1] 95 % of control | [2] 95 % of control | [3] 90 % of control | [4] 95 % of control | dose: 400.0 mg/kg/injection, schedule: Q01DX001 (ip), vehicle: Klucel (hydroxypropylcellulose) (HPC) 101 % of control | [5] 108 % of control

C=C1CC(O)C2C(C)C(=O)OC2C2C1CC1OC12C (stereo not drawn)
inactive: [6] 92 % of control | [7] 95 % of control | [8] 92 % of control

COC(=O)c1cc([N+](=O)[O-])ccc1Br
inactive: [9] 101 % of control | [10] 93 % of control | [11] 104 % of control

CCCCCCCCNC(C(=O)c1ccc(Cl)cc1)c1ccc(Cl)cc1 (stereo not drawn)
inactive: dose: 50.0 mg/kg/injection, schedule: Q01DX009 (ip), vehicle: saline 92 % of control | [12] 91 % of control | [13] 98 % of control | [14] 97 % of control | [15] 102 % of control | [16] 90 % of control

CCCC(=O)N1C(C)CCCC1C (stereo not drawn)
inactive: [6] 117 % of control | [7] 101 % of control | [8] 93 % of control

CCOC(=O)C(=O)Nc1cc(C)ccc1C
inactive: [9] 93 % of control | [10] 95 % of control

CSc1nc(Cl)cc(/N=C/N(C)C)n1
inactive: [9] 95 % of control | [10] 115 % of control | [11] 111 % of control

CCC(C)C(NC(=O)CNC(=O)OCc1ccccc1)C(=O)OCc1ccccc1 (stereo not drawn) (Cbz-Gly-[ξI]-OBn)
inactive: dose: 100.0 mg/kg/injection, schedule: Q04DX003 (ip), vehicle: other 104 % of control | dose: 200.0 mg/kg/injection, schedule: Q04DX003 (ip), vehicle: other 98 % of control | dose: 400.0 mg/kg/injection, schedule: Q04DX003 (ip), vehicle: other 103 % of control

CC(c1ccccc1)N1C(=O)CSC1=S (stereo not drawn)
inactive: [17] 96 % of control and 101 % of control | [18] 100 % of control | [19] 99 % of control and 107 % of control | dose: 100.0 mg/kg/injection, schedule: Q04DX002 (ip), vehicle: saline with Tween-80 96 % of control and 98 % of control | [9] 104 % of control | [20] 100 % of control | [21] 96 % of control and 91 % of control | dose: 200.0 mg/kg/injection, schedule: Q04DX002 (ip), vehicle: saline with Tween-80 91 % of control | [10] 102 % of control | dose: 400.0 mg/kg/injection, schedule: Q01DX001 (ip), vehicle: saline with Tween-80 92 % of control | dose: 400.0 mg/kg/injection, schedule: Q04DX002 (ip), vehicle: saline with Tween-80 90 % of control | [11] 90 % of control

CC(=O)Nc1cc(C)cc(NC(C)=O)c1C
inactive: [22] 94 % of control | dose: 300.0 mg/kg/injection, schedule: Q01DX001 (ip), vehicle: carboxymethylcellulose (CMC) 90 % of control

CC(C)C(N)C(=O)O (stereo not drawn)
inactive: dose: 50.0 mg/kg/injection, schedule: Q01DX001 (ip), vehicle: Klucel (hydroxypropylcellulose) (HPC) 97 % of control | dose: 75.0 mg/kg/injection, schedule: Q01DX001 (ip), vehicle: acetone 97 % of control | [1] 100 % of control | [23] 96 % of control | dose: 100.0 mg/kg/injection, schedule: Q01DX001 (ip), vehicle: saline 95 % of control | [24] 98 % of control | dose: 150.0 mg/kg/injection, schedule: Q01DX001 (ip), vehicle: acetone 92 % of control | [3] 99 % of control | [25] 96 % of control | dose: 200.0 mg/kg/injection, schedule: Q01DX001 (ip), vehicle: saline 100 % of control | [26] 107 % of control | dose: 300.0 mg/kg/injection, schedule: Q01DX001 (ip), vehicle: acetone 94 % of control | [27] 94 % of control | dose: 400.0 mg/kg/injection, schedule: Q01DX001 (ip), vehicle: saline 92 % of control | [28] 100 % of control

CCCCCCCCCCCCCC(=O)CCC
inactive: [19] 106 % of control | [9] 86 % of control | [21] 100 % of control | [10] 110 % of control | [29] 104 % of control | [11] 100 % of control

COC(=O)C(=O)CC(=O)c1cccc(OC)c1
inactive: dose: 25.0 mg/kg/injection, schedule: Q04DX002 (ip), vehicle: Klucel (hydroxypropylcellulose) (HPC) 93 % of control | dose: 50.0 mg/kg/injection, schedule: Q04DX002 (ip), vehicle: Klucel (hydroxypropylcellulose) (HPC) 100 % of control | [30] 107 % of control and 123 % of control | [31] 93 % of control and 100 % of control | [32] 103 % of control

COc1ccc(NC(=S)N(CCC#N)C2CCCCC2)cc1
inactive: [30] 101 % of control | [31] 94 % of control | [32] 90 % of control

Cc1[nH]c(=S)[nH]c(=O)c1CCC(=O)O
inactive: [19] 96 % of control | [24] 94 % of control | [21] 98 % of control | [26] 102 % of control | [29] 98 % of control | [28] 102 % of control

CCCC(=O)NC(=S)Nc1ccccc1
inactive: [22] 98 % of control

CCCCCCCCCC/C=N/Nc1ccc([N+](=O)[O-])cc1[N+](=O)[O-]
inactive: dose: 50.0 mg/kg/injection, schedule: Q01DX001 (ip), vehicle: saline with Tween-80 93 % of control | [18] 92 % of control | [20] 93 % of control

CC(C)(C#N)C(C)(C)C#N
inactive: dose: 1.56 mg/kg/injection, schedule: Q04DX003 (ip), vehicle: saline with Tween-80 103 % of control | dose: 3.13 mg/kg/injection, schedule: Q04DX003 (ip), vehicle: saline with Tween-80 92 % of control | dose: 6.25 mg/kg/injection, schedule: Q04DX003 (ip), vehicle: saline with Tween-80 93 % of control and 92 % of control

c1ccc(-c2cnoc2-c2ccccc2)cc1
inactive: [2] 107 % of control | [24] 111 % of control | [4] 106 % of control | [26] 95 % of control | [5] 102 % of control | [28] 101 % of control

Cc1cccc(C(=O)O)n1
inactive: [12] 103 % of control | [13] 104 % of control | [14] 113 % of control | [15] 101 % of control | dose: 400.0 mg/kg/injection, schedule: Q01DX009 (ip), vehicle: saline 93 % of control | [16] 95 % of control

CN(C)S(=O)(=O)c1ccccc1C(O)(c1ccccc1)c1ccccc1
inactive: [23] 95 % of control | [25] 93 % of control | [27] 98 % of control

CCCOCCOCCOC(C)Oc1cc(OC)ccc1OC (stereo not drawn)
inactive: [6] 93 % of control | [7] 111 % of control | [8] 96 % of control

CCC(=O)/C=C/c1ccc(Cl)cc1
inactive: [2] 98 % of control | [24] 98 % of control | [4] 97 % of control | [26] 104 % of control | [5] 97 % of control | [28] 102 % of control

CC(C)N(C(=S)SSC(=S)N(C(C)C)C(C)C)C(C)C
inactive: [17] 97 % of control | [19] 101 % of control | [21] 97 % of control

NC(CCl)=NCCN1CCNC1=O
inactive: [6] 107 % of control | [7] 104 % of control | [8] 96 % of control
